Test system: inflammatory acne of the face
Assay: Clinical trial in patients with inflammatory acne of the face
Assay type: in vivo, human patients
Settings: 10 patients 14 to 23 years old; benzoyl peroxide 4 cases, erythromycin 3 cases, nicotinamide gel 3 cases
From the text: The composition used is a gel in accordance with that whose composition is given in example 2.

Row | Structure (SMILES) | improvement of acne with conventional treatment
1 | O=C(OOC(=O)c1ccccc1)c1ccccc1 [benzoyl peroxide] | no notable improvement
2 | CC[C@H]1OC(=O)[C@H](C)[C@@H](O[C@H]2C[C@@](C)(OC)[C@@H](O)[C@H](C)O2)[C@H](C)[C@@H](O[C@@H]2O[C@H](C)C[C@H](N(C)C)[C@H]2O)[C@](C)(O)C[C@@H](C)C(=O)[C@H](C)[C@@H](O)[C@]1(C)O [erythromycin] | no notable improvement
